Values quoted from earlier work in US20110318267A1, “PH-RESPONSIVE NANOSTRUCTURES” (PRESIDENT AND FELLOWS OF HARVARD COLLEGE, priority 2008, published 2011).

**Q.** With `C=C(C)C(=O)OCCN(C)C` [DMAEMA, dimethylaminoethyl methacrylate] as the compound, how does the pKa read?
**A.** 7.5
